Assay results reported in the supplement of paper PMC10307832.

Experiments:
Assay in all cases: relative viability (nuclei count vs DMSO), 5 days (fraction); higher = more cells survive
Pictilisib + Bortezomib = compound: CS(=O)(=O)N1CCN(Cc2cc3nc(-c4cccc5[nH]ncc45)nc(N4CCOCC4)c3s2)CC1 [Pictilisib] + CC(C)C[C@H](NC(=O)[C@H](Cc1ccccc1)NC(=O)c1cnccn1)B(O)O [Bortezomib] (partner 0.002 µM)
How it was run: (§1)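 Each reported value is a median over duplicate plates. It expresses relative viability: treated-well nuclei count divided by vehicle-well nuclei count. Lung cancer cell lines in 1536-well plates were dosed by pin tool a day after seeding, alone with one drug or with a fixed anchor-drug dose plus five library-drug doses (not always all listed) in √10 steps, and nuclei were counted after 5 days.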

Pictilisib + Luminespib = compound: CS(=O)(=O)N1CCN(Cc2cc3nc(-c4cccc5[nH]ncc45)nc(N4CCOCC4)c3s2)CC1 [Pictilisib] + CCNC(=O)c1noc(-c2cc(C(C)C)c(O)cc2O)c1-c1ccc(CN2CCOCC2)cc1 [Luminespib] (partner 0.01 µM)
How it was run: as §1

MK-2206 + OSI-027 = compound: NC1(c2ccc(-c3nc4ccn5c(=O)[nH]nc5c4cc3-c3ccccc3)cc2)CCC1 [MK-2206] + COc1cccc2cc(-c3nc([C@H]4CC[C@H](C(=O)O)CC4)n4ncnc(N)c34)[nH]c12 [OSI-027] (partner 0.5 µM)
How it was run: as §1

MK-2206 + Tozasertib = compound: NC1(c2ccc(-c3nc4ccn5c(=O)[nH]nc5c4cc3-c3ccccc3)cc2)CCC1 [MK-2206] + Cc1cc(Nc2cc(N3CCN(C)CC3)nc(Sc3ccc(NC(=O)C4CC4)cc3)n2)n[nH]1 [Tozasertib] (partner 0.1 µM)
How it was run: as §1

MK-2206 + Alpelisib = compound: NC1(c2ccc(-c3nc4ccn5c(=O)[nH]nc5c4cc3-c3ccccc3)cc2)CCC1 [MK-2206] + Cc1nc(NC(=O)N2CCC[C@H]2C(N)=O)sc1-c1ccnc(C(C)(C)C(F)(F)F)c1 [Alpelisib] (partner 2 µM)
How it was run: as §1

Cell Line	relative viability (Pictilisib + Bortezomib; first compound 0.02 µM)	relative viability (Pictilisib + Bortezomib; first compound 0.06325 µM)	relative viability (Pictilisib + Bortezomib; first compound 0.6325 µM)	relative viability (Pictilisib + Bortezomib; first compound 2 µM)	relative viability (Pictilisib + Luminespib; first compound 0.02 µM)	relative viability (Pictilisib + Luminespib; first compound 0.06325 µM)	relative viability (Pictilisib + Luminespib; first compound 0.6325 µM)	relative viability (Pictilisib + Luminespib; first compound 2 µM)	relative viability (MK-2206 + OSI-027; first compound 0.01 µM)	relative viability (MK-2206 + OSI-027; first compound 0.03162 µM)	relative viability (MK-2206 + OSI-027; first compound 0.3162 µM)	relative viability (MK-2206 + OSI-027; first compound 1 µM)	relative viability (MK-2206 + Tozasertib; first compound 0.01 µM)	relative viability (MK-2206 + Tozasertib; first compound 0.03162 µM)	relative viability (MK-2206 + Tozasertib; first compound 0.3162 µM)	relative viability (MK-2206 + Tozasertib; first compound 1 µM)	relative viability (MK-2206 + Alpelisib; first compound 0.01 µM)	relative viability (MK-2206 + Alpelisib; first compound 0.03162 µM)	relative viability (MK-2206 + Alpelisib; first compound 0.3162 µM)	relative viability (MK-2206 + Alpelisib; first compound 1 µM)
HARA	1.21	1.14	1.08	0.842	0.767	0.622	0.113	0.166	0.536	0.564	0.304	0.194	0.0977	0.106	0.267	0.094	0.789	0.745	0.611	0.582
NCI-H1355	1.23	1.2	1.14	0.678	0.731	0.593	0.582	0.272	0.394	0.433	0.289	0.235	0.555	0.587	0.533	0.47	0.886	0.813	0.789	0.783
NCI-H727	0.992	0.941	0.784	0.609	0.443	0.334	0.29	0.346	0.479	0.615	0.537	0.52	0.578	0.659	0.559	0.626	0.636	0.571	0.404	0.456
NCI-H520	0.632	0.464	0.291	0.156	0.212	0.221	0.223	0.217	0.243	0.233	0.17	0.238	0.405	0.543	0.254	0.367	0.939	0.819	0.561	0.355
NCI-H838	0.77	0.744	0.606	0.313	0.332	0.262	0.241	0.258	0.484	0.397	0.327	0.366	0.286	0.259	0.26	0.253	1.02	1.02	1.01	0.943
HCC-44	1.04	0.9	0.994	0.631	1.11	1.01	0.54	0.344	0.496	0.441	0.472	0.205	0.993	1.1	1.03	0.98	0.784	0.767	0.633	0.59
HCC-827	1.03	1.03	1.14	1.03	1.01	0.472	0.224	0.152	0.78	0.871	0.655	0.391	0.441	0.438	0.366	0.412	1.07	1.05	0.821	0.816
SW 1573	0.822	1.08	0.775	0.333	0.185	0.196	0.187	0.189	0.628	0.491	0.298	0.423	0.242	0.152	0.175	0.127	0.763	0.817	0.607	0.613
